Data set [1] concerns Human prostate carcinoma DU145. Put plainly: Cytotoxicity test (sulphorodamine B), DU145. Type of data set: cell-based. To be noted: DU-145, 24 h incubation, survival 48 h after removal. An excerpt:
(§1) Different cell lines deriving from solid tumors were also used. • 1. Human prostate carcinoma PC3 and DU145. These cell lines were maintained in RPMI 1640 medium containing 10% FCS, 1% sodium pyruvate and 1% glutamine; • 2. Human colon adenocarcinoma LoVo. This cell line was maintained in HAM's F-12 medium, containing 10% FCS and 1% glutamine. • 3. Human ovarian carcinoma such as A2780 and A2780/Dx, sensitive and resistant to drugs, respectively (doxorubicin, taxol, etoposide, vincristine); IGROV-1 and IGROV-1/Pt, sensitive and resistant to platinum-based chemotherapy, respectively, were maintained in RPMI 1640 medium containing 10% FCS, 1% sodium pyruvate and 1% glutamine; • 4. Human melanoma MeWo and MeS 2.21, glioblastoma GBM, no small cell lung carcinomas A431, NCI—H460, osteosarcomas SAOS and U2OS were maintained in RPMI 1640 medium containing 10% FCS, 1% sodium pyruvate and 1% glutamine.
(§2) The cytotoxicity tests were carried out using NB4 or HL-60 cells in suspension (10000/well). The cells were seeded in a volume of 250 μl in 96 well plates and incubated for 24 hours at 37° C. […] The optical density was measured using a Multiskan spectrophotometer at 540 nm. […]
(§3) Cell survival was determined by incubation with ST1926 for 24 hours, 48 hours after the removal of the compound. […]

The test system of data set [2] is human ovarian carcinoma A2780. The data set can be described thus: Antitumoral activity in human ovarian carcinoma model A2780. It counts as in vivo, CD1 nu/nu mice. Particulars: qdx5x3w. The protocol:
The human ovarian carcinoma cells A2780, A2780/Dx and NCIH460 were maintained in RPMI-1640 containing 10% FCS, 2 mM glutamine, 50 μg/ml gentamicin, at 37° C. in a humidified atmosphere containing 5% CO2. The cells were trypsinised, collected in complete medium, centrifuged at approx. 1100 rpm for 10 minutes and the precipitate resuspended in Hank's 199 Medium; this operation was carried out twice. The cells were resuspended in Hank's 199 Medium at a density of 20×10^6/ml and 0.1 ml (equal to 2×10^6 cells/mouse) were injected s.c. into the right flank of CD1 nu/nu 6 week-old, female mice.
The ST1926 solution was prepared immediately before use and solubilised in cremophor:ethanol 1:1 and subsequently diluted 1:4 in buffered saline solution. The animal treatments were administered in a volume of 10 ml/kg. The treatment protocol for ST1926 at different doses was for 5 consecutive days (qd×5), beginning one day following tumor cell inoculation and repeated for 3 cycles. Measurements of tumor dimensions were performed using a digital calliper (Vernier Caliper) twice weekly, from the time in which the mass was measurable. The tumor mass was evaluated from the size of the two principal dimensions (length and breadth), expressed in mm, applying the formula (length×breadth^2)/2, that is, the tumor volume in mm3. For each experimental group, the percentage of tumor volume inhibition was calculated (TVI %), with respect to the control, namely (100−(T/C %). TVI was evaluated 2 days after the final administration of ST1926.
The mice were measured until the control group tumors had reached a weight of 2 g, then the mice were sacrificed by cervical dislocation.
A comparison between the TVI values obtained for each group was performed using the non parametric Mann Whitney test for non-paired data, using the Instat software from GraphPad inc.
The mice were weighed prior to each treatment, firstly, so as to be able to administer the correct quantity of substance based on the possible changes in weight observed throughout the course of administration of the drug, and also to record the maximum weight loss throughout the treatment (BWL % max).

Data set [3] relates to no small cell lung carcinoma NCI-H460. The data set can be described thus: Cytotoxicity test (sulphorodamine B), NCI-H460. Type of data set: cell-based. To be noted: Homo sapiens, 24 h incubation, survival 48 h after removal.
Description: as §1, §2, §3

Usually IC50 stands for the concentration needed to halve the response being measured.

As for `O=C(O)/C=C/c1ccc(-c2ccc(O)c(C34CC5CC(CC(C5)C3)C4)c2)cc1` [ST1926, E-4-(3-(1-adamantyl)-4-hydroxyphenyl)cinnamic acid], the IC50 amounted to 100 nM in data set [1] and 190 nM in data set [3]. Moreover, the “BWL % Max” value in data set [2] (A2780, 5 mg/kg p.o.) worked out at 3%; in data set [2] (A2780, 10 mg/kg p.o.) it was 5%. The Lethality is recorded as 0/8 in data set [2] (A2780, 5 mg/kg p.o.) and 0/8 in data set [2] (A2780, 10 mg/kg p.o.). In addition, the “TVI % ± SE” value in data set [2] (A2780, 5 mg/kg p.o.) was “*34 ± 8%”; in data set [2] (A2780, 10 mg/kg p.o.) it was “*39 ± 5%”.

The values above are taken from patent US7449495B2, “Retinoid derivatives with antiangiogenic, antitumoral and proapoptotic activities” (Sigma-Tau Industrie Farmaceutiche Riunite S.p.A., priority 2001, dated 2008).
